In patent publication US6905834B1, “Bioluminescent bioreporter integrated circuit detection methods” (UT-Battelle, LLC, priority 1997, dated 2005):
Read-outs that look alike come from different tables or passages of the source. Marks after values point to notes of the source that are not given here.

Legend:
[1] = Adsorption isotherms on calcium alginate; type: physicochemical
Procedure: Tracer concentrations were measured using a Waters ion-chromatography system with a series 510 HPLC pump, IC-PAK anion exchange column, and 431 conductance detector (Waters, Cam-bridge, MA) or monitored continuously using fluorescence.

P. fluorescens HK44 = type: cell-based, Pseudomonas fluorescens
Description: A previously developed PBR system with on-line instrumentation (Webb, 1992; Webb et al., 1991) was used to measure bacterial degradative and bioluminescent activity under conditions mimicking those of the subsurface. The reactor design is detailed in FIG. 21. The PBR was temperature controlled and fitted with metal frits welded to the inlet and outlet to retain and distribute feed to immobilized cultures. An additional inter-cavity insert allowed the installation of filters (e.g., […] inorganic and polymeric) between the packed bed and outlet frit that filtered the effluent for automatic injection into the on-line high-performance liquid chromatography (HPLC) and that produced a uniform resistance to flow that improved the overall distribution to the reactor (Webb, 1992). […] HPLC pumps supplied media to each reactor from pressurized feed reservoirs. All nutrients, including oxygen, entered the reactor dissolved in the liquid phase. Naphthalene and salicylate were detected with an on-line HPLC using a Vydac TP20154 column (Sep/A/Ra/Tions Group, Hesperia, Calif.) with a FL-4 dual-monochromator fluorescent detector (Perkin-Elmer, Norwalk, Conn.). Respective excitation and emission wavelengths for salicylate detection were 290 and 360 nm. The reactor was fitted with an on-line light detector for monitoring bioluminescent activity (Dunbar, 1992) consisting of a glued fiber bundle (Ensign Bickford Optics, Simsbury, Conn.) placed approximately 2.5 cm from the entrance of the reactor. An Oriel Inc. (Stratford, Conn.) 7070 photomultiplier detection system using a Model 77348 photomultiplier tube (radiant sensitivity of […] near 500 nm) were employed.
Mineral salts media (pH 7.2) consisting of MgSO4 7H2O ([…]), NH4NO3 ([…]), trizma™ base ([…]), MgO (1.0×10^−3 g/l), CaCl2 (2.9×10^−4 g/l), FeCl3.6H2O (5.4×10^−4 g/l), ZnSO4.7H2O (1.4×10^−4 g/l), CuSO4 (2.5×10^−5 g/l), […] (6.2×10^−6 g/l), and Na2MoO4.H2O (4.9×10^−5 g/l) were supplied to the reactor with an appropriate carbon source for degradation and bioluminescence studies. Kinetic bacterial studies were phosphate limited and maintained aerobic by con-trolled pressurization of feeds and the reactor.
The HK44 was prepared for immobilization by adding freshly thawed inoculum (frozen at −70° C. until use) to 100 mL of YEPG media which contained glucose (1.0 g/l), polypeptone (2.0 g/l), yeast extract (0.2 g/l), NH4NO3 (0.2 g/l), and tetracycline (14 mg/l). The culture was shaken for 15 hours at 25° C. and then centrifuged at 8000 rpm for 10 minutes. The pellet was then washed with 0.9% NaCl solution three times before immobilization. The concentration of HK44 was enumerated by measuring optical density at 546 nm. The HK44 was immobilized by suspending bacteria in 0.9% NaCl solution and mixing with a low-viscosity alginate (28 g/L) and NaCl (9 g/L) solution in a ratio of 1:2 by volume. Beads were formed by controlled dropwise addition to 0.1 M CaCl2 solution by a syringe needle installed in an air jet controlled by a precision regulator (Porter Instrument Co., Hatfield, Pa.) and a piece of 0.003-in. (i.d.) tubing. Beads diameters were measured using gentle wet sieving. Alginate beads were dissolved in 50 mM sodium hexametaphosphate. […]

P. putida TVA8 = type: cell-based, Pseudomonas putida; settings: for Specific Bioluminescence: approximately 50 mg/L; for light response (in words): approximately 50 mg/L (JP-4 approx. 2%), 2 h
P. putida B2 = experiment: Immobilized cell reactor (DVR) with alginate-encapsulated P. putida B2: bioluminescence and TCE co-metabolism; type: cell-based, Pseudomonas putida
Procedure: In the batch and reactor studies, bioluminescence was measured using a photomultiplier, which converts the light to an electric current. The photomultiplier in the resting cell assays and the reactor system was connected to a computer and bioluminescence as namps current was recorded.
P. putida B2 was encapsulated in alginate beads for the immobilized cell reactor system. Cells were grown in 1 L LB to an OD546 of 1.2 and were centrifuged at 5500×g for 10 min, washed three times in 0.9% NaCl and suspended in 40 ml 0.9% NaCl. The cell suspension was added to 80 ml of an alginic acid solution (28 g L^−1 low viscosity alginate, 0.9% NaCl) (Webb, 1992). The cell-alginate suspension was placed in a 60-ml syringe, forced through a 25-gauge needle, and allowed to drop into a 0.5 M CaCl2 Solution. The alginate was cross-linked by the Ca^2+ ions, thus encapsulating the cells. The cells were subsequently placed in a fresh solution of 0.1 M CaCl2 and allowed to sit for 30 min prior to use.
A differential volume reactor (DVR) was used to simulate a section of an ideal plug flow reactor. Influent to the reactor was dispersed through a porous metal frit to provide a flat velocity profile to the bed. The reactor measured 5.0 cm i.d.×5.0 cm long. A complete description of this reactor can be found in Webb et al. (1991). In this investigation, a system was designed incorporating the DVR as illustrated in FIG. 17. The system was equipped with three Millipore (Bedford, Mass.) stainless steel substrate containers rated to 690 kPa. The feed from the substrate vessels to the reactor inlet was controlled by two Filson (Middleton, Wis.) 301 HPLC pumps. A flow rate of 0.4 ml min^−1 was maintained. The substrate vessels were pressurized with oxygen to provide the system with an electron acceptor. All medium vessels contained trace mineral medium (Lackey et al., 1993) with the addition of 3 mg L^−1 pyruvic acid and a 0.1 M solution of Tris-base (pH 7.0). phosphate buffers were not used since phosphate ions complex with Ca^2+ ions and disrupt with alginate crosslinking. In addition to this medium, two of the vessels contained either TCE or toluene. The inlet concentration of toluene was altered by using square-wave perturbations with 20-h cycles (10 h with toluene, 10 h without toluene) using an HPLC pump controlled by a timer. During feed portions of the cycle, 10 mg L^−1 toluene was introduced into the inlet of the reactor. The inlet TCE concentration was constant at 20 mg L^−1.
Analysis of TCE in the reactor effluent was performed online using a stripping column (12.5 cm length and 0.4 cm inner diameter) packed with 3-mm glass beads to provide adequate surface area for TCE separation. TCE was stripped with helium, the GC carrier gas. The stripping column outlet was attached to a gas chromatograph (GC, Hewlett Packard (Wilmington, Del.) (HP) 5890 Series II) with an electron capture detector by a heated sample line maintained at 75° C. Automatic injections (25 μl) were made by a computerized control process (HP Chem Station software). The GC was equipped with a cross-linked methyl silicone capillary column (length 30 n, i.d 0.2 mm, 0.33-μm film thickness) while the oven was operated isothermally at 60° C. Other operating parameters included an injection temperature of 150° C., detector temperature of 200° C. and a split ratio of 10:1. This system was equipped with a bypass line around the reactor in order to calibrate the stripping column.
Toluene samples were removed at 0.5-ml aliquots from the effluent sampling port (FIG. 17) and injected into 1.5 ml sample vials. Headspace analysis was performed using a Shimadzu (Columbia, Md.) GC-9A gas chromatograph equipped with a 2.44-m, 3.2-mm diameter Poropak N packed column and a flame ionization detector. The isothermal temperature of the oven was 210° C., and both the detector and injector temperatures were 220° C.

[2] = exposure 2 hours, normalized to final OD546, average ± SD of three replicates
[3] = inlet TCE 20 mg/L, toluene being introduced

## O=C([O-])c1ccccc1O.[Na+] [Sodium salicylate, sodium salicylate]
[1]; listed as Salicylate
  adsorption on calcium alginate (in words): did not measurably absorb
[1]; listed as salicylate
  adsorption on calcium alginate (in words): did not appreciably partition
P. fluorescens HK44; complete data set, figure legends
  least-squares reaction rate constant, overall second order model: 2.23×10^−2 dm^3/g mol
P. fluorescens HK44; experiment 1a, biomass 3.3 × 10^9 cells/mL, feed 2.25 mg/L, τ 14 min
  Salicylate effluent ± σ: 1.43 ± 2.85 × 10^−2 mg/L
P. fluorescens HK44; experiment 1b, biomass 3.3 × 10^9 cells/mL, feed 2.25 mg/L, τ 58 min
  Salicylate effluent ± σ: 0.46 ± 0.84 × 10^−2 mg/L
P. fluorescens HK44; experiment 1c, biomass 3.3 × 10^9 cells/mL, feed 2.25 mg/L, τ 14 min
  Salicylate effluent ± σ: 1.65 ± 4.77 × 10^−2 mg/L
P. fluorescens HK44; experiment 2a, biomass 3.5 × 10^9 cells/mL, feed 2.47 mg/L, τ 24 min
  Salicylate effluent ± σ: 1.03 ± 2.83 × 10^−2 mg/L
P. fluorescens HK44; experiment 2b, biomass 3.5 × 10^9 cells/mL, feed 2.47 mg/L, τ 26 min
  Salicylate effluent ± σ: 0.86 ± 0.93 × 10^−2 mg/L
P. fluorescens HK44; experiment 2c, biomass 3.5 × 10^9 cells/mL, feed 2.47 mg/L, τ 94 min
  Salicylate effluent ± σ: 0.20 + 0.28 × 10^−2 mg/L
P. fluorescens HK44; experiment 3a, biomass […] 10^9 cells/mL, feed 4.45 mg/L, τ 15 min
  Salicylate effluent ± σ: 4.06 ± 8.85 × 10^−2 mg/L
P. fluorescens HK44; experiment 3b, biomass […] 10^9 cells/mL, feed 4.45 mg/L, τ 18 min
  Salicylate effluent ± σ: 3.84 ± 6.99 × 10^−2 mg/L
P. fluorescens HK44; experiment 3c, biomass […] 10^9 cells/mL, feed 4.45 mg/L, τ 24 min
  Salicylate effluent ± σ: 3.42 ± 8.55 × 10^−2 mg/L
P. fluorescens HK44; experiment 3f, biomass […] 10^9 cells/mL, feed 4.45 mg/L, τ 24 min
  Salicylate effluent ± σ: 3.12 ± 4.09 × 10^−2 mg/L
P. fluorescens HK44; experiment 4b, biomass […] 10^9 cells/mL, feed 4.45 mg/L, τ 36 min
  Salicylate effluent ± σ: 2.76 ± 3.95 × 10^−2 mg/L
P. fluorescens HK44; experiment 4c, biomass […] 10^9 cells/mL, feed 4.45 mg/L, τ 48 min
  Salicylate effluent ± σ: 2.25 ± 3.47 × 10^−2 mg/L
P. fluorescens HK44; experiment 4e, biomass […] 10^9 cells/mL, feed 4.45 mg/L, τ 150 min
  Salicylate effluent ± σ: 0.89 ± 1.54 × 10^−2 mg/L
P. fluorescens HK44; experiment 4f, biomass […] 10^9 cells/mL, feed 4.45 mg/L, τ 48 min
  Salicylate effluent ± σ: 2.24 + 3.49 × 10^−2 mg/L
P. fluorescens HK44; experiment 3d, biomass […] 10^9 cells/mL, feed 4.45 mg/L, τ 36 min
  Salicylate effluent ± σ: 2.77 + 4.24 × 10^−2 mg/L
P. fluorescens HK44; experiment 4d, biomass […] 10^9 cells/mL, feed 4.45 mg/L, τ 72 min
  Salicylate effluent ± σ: 1.75 ± 2.03 × 10^−2 mg/L
P. fluorescens HK44; fitted to subset 1a-c
  salicylate degradation rate constant (first order in biomass, first order in salicylate): 1.88×10^−2 dm^3 g^−1 min^−1
P. fluorescens HK44; fitted to subset 2a-c
  salicylate degradation rate constant (first order in biomass, first order in salicylate): 2.85×10^−2 dm^3 g^−1 min^−1
P. fluorescens HK44; fitted to subset 3a-f
  salicylate degradation rate constant (first order in biomass, first order in salicylate): 2.06×10^−2 dm^3 g^−1 min^−1
P. fluorescens HK44; fitted to subset 4a-f
  salicylate degradation rate constant (first order in biomass, first order in salicylate): 2.28×10^−2 dm^3 g^−1 min^−1
P. fluorescens HK44; fitted to the complete set
  salicylate degradation rate constant (first order in biomass, first order in salicylate): 2.23×10^−2 dm^3 g^−1 min^−1
P. fluorescens HK44; studies 2a-c
  slope of best-fit line, specific light response vs predicted salicylate concentration at the light probe: 1.4
P. fluorescens HK44; studies 3c-e
  slope of best-fit line, specific light response vs predicted salicylate concentration at the light probe: 2.3
P. fluorescens HK44; studies 4c-f
  slope of best-fit line, specific light response vs predicted salicylate concentration at the light probe: 1.5
P. fluorescens HK44; study 1a
  conversion: 0.64
P. fluorescens HK44; study 1c
  conversion: 0.73
P. fluorescens HK44; study 3c
  conversion: 0.77
P. fluorescens HK44; study 3e
  conversion: 0.41
P. fluorescens HK44; study 3f
  conversion: 0.70
P. fluorescens HK44; study 4b
  conversion: 0.62
P. fluorescens HK44; study 4c
  conversion: 0.50
P. fluorescens HK44; study 4f
  conversion: 0.50
P. fluorescens HK44; study 3d
  conversion: 0.62
P. fluorescens HK44; study 4d
  conversion: 0.39

## CCc1ccccc1 [Ethylbenzene, ethylbenzene]
P. putida TVA8; 50 mg/L, cells previously grown on ethylbenzene, growing cell assays
  induction of bioluminescence response in pre-grown cells: induce the bioluminescence response without a lag period
P. putida TVA8; [2]
  Specific Bioluminescence: 1.0 ± 0.2 namp/OD
P. putida TVA8; exposure 4 hours, from a similar but separate study
  Specific Bioluminescence: 47 ± 6^c namp/OD

## Cc1ccc(C)cc1 [p-xylene]
P. putida TVA8
  light response (in words): significant light response
P. putida TVA8; [2]
  Specific Bioluminescence: 24 ± 2 namp/OD

## ClC=C(Cl)Cl [TCE, trichloroethylene]
P. putida B2; 20 mg/l TCE
  toxic effects of continuous TCE exposure (in words): there did not appear to be any toxic effects
P. putida B2; absence of toluene, 20 mg/L TCE
  induction of the tod operon by TCE (in words): did not appear to induce the tod operon
P. putida B2; [3]
  TCE removal: 20%
  steady-state TCE effluent concentration: 16.5 ± 0.2 mg/L

## Oc1ccccc1 [Phenol, phenol]
P. putida TVA8
  light response (in words): significant light response
P. putida TVA8; [2]
  Specific Bioluminescence: 70 ± 2 namp/OD

## Cc1cccc(C)c1 [m-xylene]
P. putida TVA8
  light response (in words): significant light response
P. putida TVA8; [2]
  Specific Bioluminescence: 38 ± 3 namp/OD

## Cc1ccccc1C [o-xylene]
P. putida TVA8
  light response (in words): no increase of bioluminescence
P. putida TVA8; [2]
  Specific Bioluminescence: 0.5 ± 0.1 namp/OD

## c1ccccc1 [Benzene, benzene]
P. putida TVA8
  light response (in words): significant light response
P. putida TVA8; [2]
  Specific Bioluminescence: 242 ± 9 namp/OD
